According to PubChem BioAssay (NCI):
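All cell lines were grown in 96-well plates and treated with compound for 48 hours. TGI denotes the concentration required for complete inhibition of growth.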

How the values were obtained:
Experiment in all cases: DTP human tumour cell line panel, 48 h
[1] = tested on: A549 NSCLC
[2] = tested on: BT-549 breast
[3] = tested on: HCT-15 colon
[4] = tested on: K-562 leukemia
[5] = tested on: MALME-3M melanoma
[6] = tested on: MCF7 breast
[7] = tested on: MDA-N
[8] = tested on: NCI-H23 lung
[9] = tested on: OVCAR-3 ovarian
[10] = tested on: RPMI-8226 leukemia
[11] = tested on: SF-268 CNS
[12] = tested on: SK-MEL-28 melanoma
[13] = tested on: SK-MEL-5 melanoma
[14] = tested on: SN12C renal
[15] = tested on: T-47D breast
[16] = tested on: TK-10 renal
[17] = tested on: U251 CNS
[18] = tested on: UACC-62 melanoma
[19] = tested on: UO-31 renal
[20] = tested on: CCRF-CEM leukemia

| Compound | TGI [1] [µM] | TGI [2] [µM] | TGI [3] [µM] | TGI [4] [µM] | TGI [5] [µM] | TGI [6] [µM] | TGI [7] [µM] | TGI [8] [µM] | TGI [9] [µM] | TGI [10] [µM] | TGI [11] [µM] | TGI [12] [µM] | TGI [13] [µM] | TGI [14] [µM] | TGI [15] [µM] | TGI [16] [µM] | TGI [17] [µM] | TGI [18] [µM] | TGI [19] [µM] | TGI [20] [µM] |
| --- | --- | --- | --- | --- | --- | --- | --- | --- | --- | --- | --- | --- | --- | --- | --- | --- | --- | --- | --- | --- |
| CCOc1ccc(N/C(=C(/C(Cl)=C(/Cl)Nc2ccccc2)[N+](=O)[O-])n2nnc3ccccc32)cc1 | > 100 | 28.7 | 28 | > 100 | 44.4 | > 100 | 40.3 | 32.6 | 80.8 | > 100 | 53.4 | 54.5 | 37 | 47.2 | > 100 | > 100 | 33.6 | 43.5 | 54.5 | – |
| Clc1ccc(Nc2nnc(CCCCCCCCc3nnc(Nc4ccc(Cl)cc4)o3)o2)cc1 | 89.8 | > 100 | > 100 | > 100 | > 100 | > 100 | > 100 | 90.6 | – | 79.7 | – | > 100 | 64.2 | > 100 | – | > 100 | > 100 | 78.4 | > 100 | – |
| O=C(c1ccccc1)c1ccc(N2C(=O)/C(=C/Cc3ccco3)N=C2c2ccccc2)c(N2C(=O)/C(=C/Cc3ccco3)N=C2c2ccccc2)c1 | > 100 | > 100 | > 100 | > 100 | – | > 100 | > 100 | – | 46.7 | 91.3 | > 100 | > 100 | 88.5 | > 100 | > 100 | > 100 | 43.8 | > 100 | > 100 | 53.5 |
| Cc1ccc(/C=N/n2c(Cc3ccccc3)n[nH]c2=O)cc1 | > 100 | > 100 | > 100 | > 100 | > 100 | – | > 100 | > 100 | > 100 | > 100 | > 100 | > 100 | > 100 | > 100 | > 100 | > 100 | – | – | > 100 | > 100 |
| COc1ccc(N=C2S/C(=N\C(=Nc3ccccc3)SCc3ccccc3)N(c3ccccc3)C2=Nc2ccc(OC)cc2)cc1 | > 100 | > 100 | > 100 | > 100 | > 100 | > 100 | > 100 | > 100 | – | > 100 | – | > 100 | > 100 | > 100 | > 100 | > 100 | – | > 100 | > 100 | > 100 |
| O=C(O)CSCc1cc2c(O)c(c1)Cc1cc(CSCC(=O)O)cc(c1O)Cc1cc(CSCC(=O)O)cc(c1O)Cc1cc(CSCC(=O)O)cc(c1O)C2 | > 100 | > 100 | > 100 | > 100 | > 100 | > 100 | > 100 | > 100 | > 100 | > 100 | > 100 | > 100 | – | > 100 | > 100 | > 100 | > 100 | – | > 100 | > 100 |
| O=C1c2cccnc2S(=O)(=O)N1c1ccc(Oc2ccccc2)cc1 | > 100 | > 100 | > 100 | > 100 | > 100 | > 100 | > 100 | > 100 | > 100 | > 100 | > 100 | > 100 | – | > 100 | > 100 | – | > 100 | > 100 | > 100 | > 100 |
| CCN(CC)C(=O)Cn1c(-c2ccccc2)cc2ccccc21 | > 100 | 94.5 | > 100 | > 100 | > 100 | > 100 | > 100 | > 100 | > 100 | – | > 100 | > 100 | 31.9 | > 100 | > 100 | > 100 | > 100 | – | 64.5 | > 100 |
| c1cnn(C23C4C5C6C4C2C6C53)c1 (stereo not drawn) | > 100 | > 100 | > 100 | > 100 | – | > 100 | > 100 | > 100 | – | > 100 | > 100 | > 100 | > 100 | > 100 | > 100 | > 100 | > 100 | – | – | > 100 |
| COC(=O)CCC(C)[C@H]1CCC2C3C(C[C@H](OC(C)=O)[C@@]21C)[C@@]1(C)CCC2(C[C@H]1C[C@H]3OC(C)=O)OOC1(CCCC1)OO2 (stereo partly drawn) | > 100 | > 100 | > 100 | > 100 | > 100 | > 100 | > 100 | > 100 | > 100 | 9.44 | > 100 | > 100 | > 100 | > 100 | 75 | > 100 | > 100 | – | 27.8 | > 100 |
| CC(C)(C)n1c(=O)n2n(c1=O)Cc1cccc3cccc(c13)C2 | > 100 | 95.3 | 39.5 | 35.4 | 31.7 | 92.4 | 50.8 | > 100 | 35.1 | 71.6 | 49.1 | 58.8 | > 100 | 46.3 | – | > 100 | 33.9 | 82.5 | 53.1 | 24.6 |
| N#C[C@H](C(=O)c1ccccc1F)c1nc2ccccc2s1 | > 100 | > 100 | > 100 | > 100 | 56.2 | – | > 100 | > 100 | 63.7 | > 100 | > 100 | > 100 | > 100 | > 100 | > 100 | > 100 | > 100 | > 100 | > 100 | 73.9 |
| Cc1ccc(S(=O)(=O)CN2C(=O)C(c3ccccc3)(c3ccccc3)C23OC(c2ccc(Cl)cc2)=CC3=O)cc1 (stereo not drawn) | > 10 | > 10 | > 10 | > 10 | > 10 | > 10 | > 10 | > 10 | > 10 | – | > 10 | > 10 | > 10 | > 10 | > 10 | > 10 | > 10 | > 10 | > 10 | > 10 |
